BigSolDB 2.1

SMILES: CCCCCCCCCCCCCCCCCCCCCCCCCCCCO
- solubility (mole fraction) (in n-hexanol, 298.2 K): 0.000906
- solubility (mole fraction) (in n-hexanol, 303.2 K): 0.00126
- solubility (mole fraction) (in n-hexanol, 308.2 K): 0.00238
- solubility (mole fraction) (in n-hexanol, 313.2 K): 0.00436
- solubility (mole fraction) (in n-hexanol, 318.2 K): 0.00758
- solubility (mole fraction) (in n-hexanol, 323.2 K): 0.0148
- solubility (mole fraction) (in n-hexanol, 328.2 K): 0.0291
- solubility (mole fraction) (in n-hexanol, 333.2 K): 0.0602
- solubility (mole fraction) (in n-pentanol, 298.2 K): 0.000644
- solubility (mole fraction) (in n-pentanol, 303.2 K): 0.00115
- solubility (mole fraction) (in n-pentanol, 308.2 K): 0.00222
- solubility (mole fraction) (in n-pentanol, 313.2 K): 0.00375
- solubility (mole fraction) (in n-pentanol, 318.2 K): 0.00658
- solubility (mole fraction) (in n-pentanol, 323.2 K): 0.013
- solubility (mole fraction) (in n-pentanol, 328.2 K): 0.026
- solubility (mole fraction) (in toluene, 298.2 K): 0.0014
- solubility (mole fraction) (in toluene, 303.2 K): 0.00246
- solubility (mole fraction) (in toluene, 308.2 K): 0.00402
- solubility (mole fraction) (in toluene, 313.2 K): 0.00744
- solubility (mole fraction) (in toluene, 318.2 K): 0.0137
- solubility (mole fraction) (in toluene, 323.2 K): 0.0291
- solubility (mole fraction) (in toluene, 328.2 K): 0.0588
